Experimental findings from US7368470B2, “Substituted 3-pyrrolidine-indole derivatives” (Gruenenthal GmbH, priority 2003, dated 2008) are described below.

The target of test [1] is T1, noradrenalin reuptake (NA uptake) (Rattus norvegicus, UniProt Q9WTR4).
T1 construct: These vesicular particles were isolated from the hypothalamus of male rats' brains for NA uptake; from tissue; host or cells: rat brain synaptosomes (P2 fraction; cerebral cortex / hypothalamus of male rats)
Nature of the test: Noradrenalin reuptake inhibition (NA uptake inhibition) in rat brain synaptosomes. Conditions: synaptosomes from male rats' brains. Format: biochemical. The source says:
b) Tests on Noradrenalin Reuptake Inhibition
In order to be able to carry out these in vitro studies, synaptosomes from rats' cerebral cortices were freshly isolated. A “P2” fraction, prepared according to Gray and Whittaker's instructions (E. G. Gray and V. P. Whittaker (1962) J. Anat. 76, 79-88) was used in each case. These vesicular particles were isolated from the hypothalamus of male rats' brains for NA uptake.
A detailed description of the method may be found in the literature (M. Ch. Frink, H.-H. Hennies, W. Englberger, M. Haurand and B. Wilffert (1996) Arzneim.-Frosch./Drug Res. 46 (III), 11, 1029-1036).

Test [2] deals with T2, serotonin reuptake (5HT uptake) (Rattus norvegicus, UniProt P31652).
T2 construct: These vesicular particles were isolated from the hypothalamus of male rats' brains for 5HT uptake; from tissue; host or cells: rat brain synaptosomes (P2 fraction; cerebral cortex / hypothalamus of male rats)
T2 sequence (P31652 whole entry): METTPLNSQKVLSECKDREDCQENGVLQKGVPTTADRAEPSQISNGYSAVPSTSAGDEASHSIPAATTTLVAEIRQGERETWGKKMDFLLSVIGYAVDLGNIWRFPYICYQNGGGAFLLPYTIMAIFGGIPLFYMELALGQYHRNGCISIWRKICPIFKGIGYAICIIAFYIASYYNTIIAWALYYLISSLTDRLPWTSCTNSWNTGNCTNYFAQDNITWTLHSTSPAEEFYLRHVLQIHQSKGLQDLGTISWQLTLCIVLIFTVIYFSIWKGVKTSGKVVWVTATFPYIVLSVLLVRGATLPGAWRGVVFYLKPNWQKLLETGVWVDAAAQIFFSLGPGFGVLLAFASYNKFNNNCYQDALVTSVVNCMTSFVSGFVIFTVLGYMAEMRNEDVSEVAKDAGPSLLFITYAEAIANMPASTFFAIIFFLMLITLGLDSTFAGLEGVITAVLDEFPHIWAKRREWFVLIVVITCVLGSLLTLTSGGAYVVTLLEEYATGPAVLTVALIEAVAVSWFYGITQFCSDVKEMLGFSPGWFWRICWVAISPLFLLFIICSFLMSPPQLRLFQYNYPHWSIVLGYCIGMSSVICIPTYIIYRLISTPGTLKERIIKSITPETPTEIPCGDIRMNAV
Nature of the test: Serotonin reuptake inhibition (5HT uptake inhibition) in rat brain synaptosomes. Conditions: synaptosomes from male rats' brains. Format: biochemical. The source says: a) Tests on Serotonin Reuptake Inhibition
In order to be able to carry out these in vitro studies, synaptosomes from rats' cerebral cortices were freshly isolated. A “P2” fraction prepared according to Gray and Whittaker's instructions (E. G. Gray and V. P. Whittaker (1962) J. Anat. 76, 79-88) was used in each case. These vesicular particles were isolated from the hypothalamus of male rats' brains for 5HT uptake.
A detailed description of the method may be found in the literature (M. Ch. Frink, H.-H. Hennies, W. Englberger, M. Haurand and B. Wilffert (1996) Arzneim.-Forsch./Drug Res. 46 (III), 11, 1029-1036).

Test [3] relates to binding site 2 of the sodium channel (batrachotoxin (BTX) binding site). Description: Binding test on the sodium channel, binding site 2 (BTX bond), [3H]-batrachotoxinin A20 α-benzoate as ligand. Also on record: species or system rat. Conditions: 10 μM; rat cerebrocortex synaptosomes; ligand 10 nM; 25° C., 120 min.

What is called inhibition is the relative decrease from the control value, in per cent. A high value points to strong suppression.

Each structure is given as a SMILES string.

T1 sequence (Q9WTR4 1-597): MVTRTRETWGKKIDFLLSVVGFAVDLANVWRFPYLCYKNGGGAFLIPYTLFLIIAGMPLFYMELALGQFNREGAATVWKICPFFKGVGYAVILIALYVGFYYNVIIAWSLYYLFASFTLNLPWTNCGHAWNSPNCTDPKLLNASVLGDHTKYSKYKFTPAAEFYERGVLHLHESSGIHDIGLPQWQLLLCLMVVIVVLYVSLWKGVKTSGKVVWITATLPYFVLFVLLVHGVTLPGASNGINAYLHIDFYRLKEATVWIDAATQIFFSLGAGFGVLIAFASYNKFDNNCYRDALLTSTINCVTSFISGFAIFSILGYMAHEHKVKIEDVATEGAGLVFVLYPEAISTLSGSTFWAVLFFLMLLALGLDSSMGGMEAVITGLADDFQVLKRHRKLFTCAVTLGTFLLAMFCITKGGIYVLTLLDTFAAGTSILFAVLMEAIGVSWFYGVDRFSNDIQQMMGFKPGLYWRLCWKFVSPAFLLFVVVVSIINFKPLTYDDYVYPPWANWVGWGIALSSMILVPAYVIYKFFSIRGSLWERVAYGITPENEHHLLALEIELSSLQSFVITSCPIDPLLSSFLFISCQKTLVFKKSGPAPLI

As to `Cn1cc(C2CCN(C(=O)C=Cc3ccccc3)C2)c2ccccc21` (stereo not shown) [Compound 26, 1-[3-(1-methyl-1H-indol-3-yl)-pyrrolidin-1-yl]-3-phenyl-propenone], in test [1], the “NA-uptake, inhibition [10 μM]” value was found to be 44. The “5HT uptake, % inhibition [10 μM]” value in test [2] was 62%. In addition, the “BTX bond, % inhibition [10 μM]” value in test [3] came out at 93%.
As to `COc1cccc(Cn2cc(C3CCN(C(=O)Cc4ccc(Cl)cc4)C3)c3ccccc32)c1` (stereo not shown) [Compound 46, 2-(4-chloro-phenyl)-1-{3-[1-(3-methoxy-benzyl)-1H-indol-3-yl]-pyrrolidin-1-yl}-ethanone], the inhibition at 10 µM in test [1] came out at 20%; in test [2], 46%. The “BTX bond, % inhibition [10 μM]” value in test [3] worked out at 88%.
Turning to `Cc1oc(C(C)(C)C)cc1C(=O)N1CCC(c2cn(Cc3ccccc3C#N)c3ccccc23)C1` (stereo not shown) [Compound 33, 2-{3-[1-(5-tert-butyl-2-methyl-furan-3-carbonyl)pyrrolidin-3-yl]-indol-1-ylmethyl)-benzonitrile], the inhibition at 10 µM in test [2] was 87%. Moreover, the “BTX bond, % inhibition [10 μM]” value in test [3] is 89%.
In the same order, the values of `COc1cccc(Cn2cc(C3CCN(C(=O)CCc4ccccc4)C3)c3ccccc32)c1` (stereo not shown) [Compound 36, 1-{3-[1-(3-methoxy-benzyl)-1H-indol-3-yl]-pyrrolidin-1-yl}-3-phenyl-propan-1-one] are 42% and 96%.
Take `N#Cc1ccc(Cn2cc(C3CCN(C(=O)c4ccc5nonc5c4)C3)c3ccccc32)cc1` (stereo not shown) [Compound 34, 4-{3-[1-(benzo[1,2,5]oxadiazole-5-carbonyl)-pyrrolidin-3-yl]-indol-1-ylmethyl}-benzonitrile]: the inhibition at 10 µM came to 49% in test [1] and 57% in test [2]. Besides, the “BTX bond, % inhibition [10 μM]” value in test [3] was determined as 91%.
For `O=C(c1ccc([N+](=O)[O-])cc1Cl)N1CCC(c2cn(Cc3cccc(F)c3)c3ccccc23)C1` (stereo not shown) [Compound 20, (2-chloro-4-nitro-phenyl)-{3-[1-(3-fluoro-benzyl)-1H-indol-3-yl]-pyrrolidin-1-yl}-methanone], in that order: 43%, 89% and 91%.
The molecule `CN(C)C(=O)Cn1cc(C2CCN(C(=S)Nc3cccc(C(F)(F)F)c3)C2)c2ccccc21` (stereo not shown) [Compound 16, N,N-dimethyl-2-{3-[1-(3-trifluoromethyl-phenylthiocarbamoyl)-pyrrolidin-3-yl]-indol-1-yl}-acetamide] showed an inhibition at 10 µM in test [1] of 50%.
For `COCC(=O)N1CCC(c2cn(Cc3cccc(OC)c3)c3ccccc23)C1` (stereo not shown) [Compound 41, 2-methoxy-1-{3-[1-(3-methoxy-benzyl)-1H-indol-3-yl]-pyrrolidin-1-yl}-ethanone], the results for the inhibition at 10 µM in test [1] and in test [2] were 43% and 44%, respectively.
`CCn1cc(C2CCN(C(=O)c3c(-c4ccccc4Cl)noc3C)C2)c2ccccc21` (stereo not shown) [Compound 32, [3-(2-chloro-phenyl)-5-methyl-isoxazol-4-yl]-[3-(1-ethyl-1H-indol-3-yl)-pyrrolidin-1-yl]-methanone] gave an inhibition at 10 µM in test [1] of 44%.
As to `CC#CCn1cc(C2CCN(CC(=O)Nc3cc(C)nn3C)C2)c2ccccc21` (stereo not shown) [Compound 49, 2-[3-(1-but-2-ynyl-1H-indol-3-yl)-pyrrolidin-1-yl]-N-(2,5-dimethyl-2H-pyrazol-3-yl)-acetamide], the figures for the inhibition at 10 µM in test [1] and in test [2] were 100% and 68%, respectively.
Turning to `Cc1ccc(F)c(C(=O)N2CCC(c3cn(Cc4ccc(C#N)cc4)c4ccccc34)C2)c1Cl` (stereo not shown) [Compound 31, 4-{3-[1-(2-chloro-6-fluoro-3-methyl-benzoyl)-pyrrolidin-3-yl]-indol-1-ylmethyl}-benzonitrile], the figures for the inhibition at 10 µM in test [1] and in test [2] were 41% and 62%, respectively. Moreover, the “BTX bond, % inhibition [10 μM]” value in test [3] was 92%.
In test [1], `CCn1cc(C2CCN(C(=O)c3cc(C(F)(F)F)ccc3Cl)C2)c2ccccc21` (stereo not shown) [Compound 38, (2-chloro-5-trifluoromethyl-phenyl)-[3-(1-ethyl-1H-indol-3-yl)-pyrrolidin-1-yl]-methanone] registered an inhibition at 10 µM of 49%. In addition, the “BTX bond, % inhibition [10 μM]” value in test [3] was 89%.
Turning to `CCN(CC)C(=O)Cn1cc(C2CCN(CC(=O)Nc3ccc(C(F)(F)F)cc3)C2)c2ccccc21` (stereo not shown) [Compound 51, N,N-diethyl-2-(3-{1-[(4-trifluoromethyl-phenylcarbamoyl)-methyl]-pyrrolidin-3-yl}-indol-1-yl)-acetamide], the inhibition at 10 µM in test [1] was found to be 57%.
For `CCn1cc(C2CCN(C(=O)c3cccnc3)C2)c2ccccc21` (stereo not shown) [Compound 28], the “NA-uptake, inhibition [10 μM]” value in test [1] is 52. In test [2], the “5HT uptake, % inhibition [10 μM]” value stood at 41%.
In test [2], `COc1cccc(Cn2cc(C3CCN(C(=O)c4ccc(C)cc4)C3)c3ccccc32)c1` (stereo not shown) [Compound 43, {3-[1-(3-methoxy-benzyl)-1H-indol-3-yl]-pyrrolidin-1-yl}-p-tolyl-methanone] gave an inhibition at 10 µM of 48%. The “BTX bond, % inhibition [10 μM]” value in test [3] came to 92%.
For the molecule `Cn1cc(C2CCN(C(=O)c3cccnc3Cl)C2)c2ccccc21` (stereo not shown) [Compound 40, (2-chloro-pyridin-3-yl)-[3-(1-methyl-1H-indol-3-yl)-pyrrolidin-1-yl]-methanone], the inhibition at 10 µM worked out at 43% in test [1] and 66% in test [2].
For `O=C(c1ccc(SC(F)(F)F)cc1)N1CCC(c2c[nH]c3ccccc23)C1` (stereo not shown) [Compound 18, [3-(1H-indol-3-yl)-pyrrolidin-1-yl]-(4-trifluoromethylsulphanyl-phenyl)-methanone], in that order: 49% and 49%.
Turning to `C#CCn1cc(C2CCN(C(=O)c3cccnc3SC)C2)c2ccccc21` (stereo not shown) [Compound 44, (2-methylsulphanyl-pyridin-3-yl)-[3-(1-prop-2-inyl-1H-indol-3-yl)-pyrrolidin-1-yl]-methanone], the “NA-uptake, inhibition [10 μM]” value in test [1] was 49. For the same molecule, in test [2], the “5HT uptake, % inhibition [10 μM]” value came out at 60%.
Take `CCn1cc(C2CCN(CC(=O)Nc3scc(C)c3C#N)C2)c2ccccc21` (stereo not shown) [Compound 52, N-(3-cyano-4-methyl-thiophen-2-yl)-2-[3-(1-ethyl-1H-indol-3-yl)-pyrrolidin-1-yl]-acetamide]: the inhibition at 10 µM came out at 54% in test [1] and 79% in test [2].
For `CSc1ncccc1C(=O)N1CCC(c2cn(C)c3ccccc23)C1` (stereo not shown) [Compound 37, [3-(1-methyl-1H-indol-3-yl)-pyrrolidin-1-yl]-(2-methylsulphanyl-pyridin-3-yl)-methanone], in that order: 43% and 64%.
In the same order, the values of `O=[N+]([O-])c1ccc(S(=O)(=O)N2CCC(c3c[nH]c4ccccc34)C2)cc1` (stereo not shown) [Compound 24, 3-[1-(4-nitro-benzenesulphonyl)-pyrrolidin-3-yl]-1H-indole] are 59% and 53%.
As to `CCn1cc(C2CCN(C(=O)c3ccc(C(F)(F)F)cc3)C2)c2ccccc21` (stereo not shown) [Compound 48, [3-(11-ethyl-1H-indol-3-yl)-pyrrolidin-1-yl]-(4-trifluoromethyl-phenyl)-methanone], the “NA-uptake, inhibition [10 μM]” value in test [1] came out at 40. Further, the “5HT uptake, % inhibition [10 μM]” value in test [2] is given as 43%.
